Legend:
Design in all cases: scale not given: the % may be the effect or the level left
[1] = biological target: T1, Serine/threonine-protein kinase A-Raf (Homo sapiens) (UniProt P10398); experiment: Inhibition of human ARAF assessed as enzyme activity at 1 uM using MEK1 (K97R) as substrate preincubated for 20 mins followed by [gamma-33P]-ATP addition and measured after 120 mins by radiometric Hot-SpotSM Kinase assay relative to control
T1 sequence (whole entry): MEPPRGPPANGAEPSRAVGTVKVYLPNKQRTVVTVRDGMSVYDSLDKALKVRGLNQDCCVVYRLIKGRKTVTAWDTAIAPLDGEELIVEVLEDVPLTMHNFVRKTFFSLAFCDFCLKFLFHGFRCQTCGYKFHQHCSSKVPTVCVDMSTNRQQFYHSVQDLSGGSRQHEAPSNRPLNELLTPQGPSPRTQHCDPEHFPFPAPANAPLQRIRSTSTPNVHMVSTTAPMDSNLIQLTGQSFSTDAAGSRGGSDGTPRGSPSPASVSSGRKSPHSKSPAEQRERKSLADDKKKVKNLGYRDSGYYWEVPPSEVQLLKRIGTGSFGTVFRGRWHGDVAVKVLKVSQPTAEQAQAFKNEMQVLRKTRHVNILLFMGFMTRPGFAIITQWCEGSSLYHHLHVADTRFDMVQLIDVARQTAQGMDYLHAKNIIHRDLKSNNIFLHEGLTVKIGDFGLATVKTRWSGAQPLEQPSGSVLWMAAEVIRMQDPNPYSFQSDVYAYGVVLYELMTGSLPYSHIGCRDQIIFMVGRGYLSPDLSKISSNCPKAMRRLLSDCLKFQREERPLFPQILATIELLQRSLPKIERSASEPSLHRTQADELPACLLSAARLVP

[2] = biological target: Ribosomal protein S6 kinase alpha-3 (Homo sapiens) (UniProt P51812); experiment: Inhibition of human RSK2 assessed as enzyme activity at 1 uM using KKLNRTLSVA as substrate preincubated for 20 mins followed by [gamma-33P]-ATP addition and measured after 120 mins by radiometric Hot-SpotSM Kinase assay relative to control
Chain of Ribosomal protein S6 kinase alpha-3 (Homo sapiens) (P51812 whole entry): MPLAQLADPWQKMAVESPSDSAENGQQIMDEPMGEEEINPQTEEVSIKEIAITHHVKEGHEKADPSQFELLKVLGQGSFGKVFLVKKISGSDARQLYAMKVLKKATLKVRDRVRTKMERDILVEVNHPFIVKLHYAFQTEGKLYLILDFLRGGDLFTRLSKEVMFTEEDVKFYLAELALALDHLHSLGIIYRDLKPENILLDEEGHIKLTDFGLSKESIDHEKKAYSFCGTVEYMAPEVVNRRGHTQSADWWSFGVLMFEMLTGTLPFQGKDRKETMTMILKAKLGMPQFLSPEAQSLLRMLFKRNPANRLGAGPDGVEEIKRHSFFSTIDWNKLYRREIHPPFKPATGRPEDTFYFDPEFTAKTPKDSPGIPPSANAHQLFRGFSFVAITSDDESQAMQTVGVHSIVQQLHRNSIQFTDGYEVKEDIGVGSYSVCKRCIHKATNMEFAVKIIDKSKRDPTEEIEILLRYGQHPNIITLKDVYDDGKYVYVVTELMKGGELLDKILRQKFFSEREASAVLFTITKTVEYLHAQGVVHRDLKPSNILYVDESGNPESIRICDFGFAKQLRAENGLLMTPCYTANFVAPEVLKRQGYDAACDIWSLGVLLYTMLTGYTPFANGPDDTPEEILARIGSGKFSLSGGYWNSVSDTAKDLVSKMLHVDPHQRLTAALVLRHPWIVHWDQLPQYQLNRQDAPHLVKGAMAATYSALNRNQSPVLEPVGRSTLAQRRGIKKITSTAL

[3] = biological target: Glycogen synthase kinase-3 beta (Homo sapiens) (UniProt P49841); experiment: Inhibition of human GSK3b assessed as enzyme activity at 1 uM using YRRAAVPPSPSLSRHSSPHQ(pS)EDEEE as substrate preincubated for 20 mins followed by [gamma-33P]-ATP addition and measured after 120 mins by radiometric Hot-SpotSM Kinase assay relative to control
Chain of Glycogen synthase kinase-3 beta (Homo sapiens) (P49841 whole entry, looked up): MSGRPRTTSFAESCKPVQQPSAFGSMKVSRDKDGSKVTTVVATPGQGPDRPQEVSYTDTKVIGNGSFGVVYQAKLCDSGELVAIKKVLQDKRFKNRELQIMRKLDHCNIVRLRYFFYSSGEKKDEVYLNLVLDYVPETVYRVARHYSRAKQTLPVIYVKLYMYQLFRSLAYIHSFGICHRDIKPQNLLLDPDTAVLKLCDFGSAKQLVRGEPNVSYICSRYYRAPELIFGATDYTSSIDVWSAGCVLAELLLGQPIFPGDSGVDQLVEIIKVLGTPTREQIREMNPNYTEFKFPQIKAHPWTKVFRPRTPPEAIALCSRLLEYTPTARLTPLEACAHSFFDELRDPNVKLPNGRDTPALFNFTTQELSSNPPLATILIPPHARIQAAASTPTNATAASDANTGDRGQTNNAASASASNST

[4] = biological target: Mitogen-activated protein kinase 8 (Homo sapiens) (UniProt P45983); experiment: Inhibition of human JNK1-alpha1 assessed as enzyme activity at 1 uM using ATF2 as substrate preincubated for 20 mins followed by [gamma-33P]-ATP addition and measured after 120 mins by radiometric Hot-SpotSM Kinase assay relative to control
Chain of Mitogen-activated protein kinase 8 (Homo sapiens) (P45983 whole entry): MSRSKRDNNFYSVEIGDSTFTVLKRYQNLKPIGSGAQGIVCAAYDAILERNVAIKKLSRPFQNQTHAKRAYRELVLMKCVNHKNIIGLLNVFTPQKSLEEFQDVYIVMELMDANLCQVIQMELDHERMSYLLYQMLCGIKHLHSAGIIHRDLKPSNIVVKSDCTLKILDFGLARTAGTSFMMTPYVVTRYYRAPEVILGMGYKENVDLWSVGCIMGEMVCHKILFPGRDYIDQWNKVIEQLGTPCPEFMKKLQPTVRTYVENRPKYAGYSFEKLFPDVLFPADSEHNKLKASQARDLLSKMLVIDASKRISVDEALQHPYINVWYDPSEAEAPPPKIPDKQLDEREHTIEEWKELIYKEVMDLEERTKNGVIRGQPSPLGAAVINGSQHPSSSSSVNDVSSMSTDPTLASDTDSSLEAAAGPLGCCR

[5] = biological target: Serine/threonine-protein kinase 32B (Homo sapiens) (UniProt Q9NY57); experiment: Inhibition of human STK32B assessed as enzyme activity at 1 uM using myelin basic protein as substrate preincubated for 20 mins followed by [gamma-33P]-ATP addition and measured after 120 mins by radiometric Hot-SpotSM Kinase assay relative to control
Chain of Serine/threonine-protein kinase 32B (Homo sapiens) (Q9NY57 whole entry): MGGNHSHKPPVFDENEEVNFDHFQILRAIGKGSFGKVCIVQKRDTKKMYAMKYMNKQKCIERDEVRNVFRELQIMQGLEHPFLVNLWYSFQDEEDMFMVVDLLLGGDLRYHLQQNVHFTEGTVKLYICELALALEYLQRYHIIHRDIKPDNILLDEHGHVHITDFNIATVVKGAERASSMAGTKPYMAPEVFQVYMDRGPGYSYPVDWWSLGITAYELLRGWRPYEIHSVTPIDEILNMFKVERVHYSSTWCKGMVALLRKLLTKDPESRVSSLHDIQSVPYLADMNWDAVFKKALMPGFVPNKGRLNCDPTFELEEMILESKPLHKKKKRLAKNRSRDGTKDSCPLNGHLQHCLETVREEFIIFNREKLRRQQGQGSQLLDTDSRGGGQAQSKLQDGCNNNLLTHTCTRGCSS

[6] = biological target: Vascular endothelial growth factor receptor 2 (Homo sapiens) (UniProt P35968); experiment: Inhibition of human KDR assessed as enzyme activity at 1 uM using poly[Glu:Tyr] (4:1) as substrate preincubated for 20 mins followed by [gamma-33P]-ATP addition and measured after 120 mins by radiometric Hot-SpotSM Kinase assay relative to control
Chain of Vascular endothelial growth factor receptor 2 (Homo sapiens) (P35968 whole entry): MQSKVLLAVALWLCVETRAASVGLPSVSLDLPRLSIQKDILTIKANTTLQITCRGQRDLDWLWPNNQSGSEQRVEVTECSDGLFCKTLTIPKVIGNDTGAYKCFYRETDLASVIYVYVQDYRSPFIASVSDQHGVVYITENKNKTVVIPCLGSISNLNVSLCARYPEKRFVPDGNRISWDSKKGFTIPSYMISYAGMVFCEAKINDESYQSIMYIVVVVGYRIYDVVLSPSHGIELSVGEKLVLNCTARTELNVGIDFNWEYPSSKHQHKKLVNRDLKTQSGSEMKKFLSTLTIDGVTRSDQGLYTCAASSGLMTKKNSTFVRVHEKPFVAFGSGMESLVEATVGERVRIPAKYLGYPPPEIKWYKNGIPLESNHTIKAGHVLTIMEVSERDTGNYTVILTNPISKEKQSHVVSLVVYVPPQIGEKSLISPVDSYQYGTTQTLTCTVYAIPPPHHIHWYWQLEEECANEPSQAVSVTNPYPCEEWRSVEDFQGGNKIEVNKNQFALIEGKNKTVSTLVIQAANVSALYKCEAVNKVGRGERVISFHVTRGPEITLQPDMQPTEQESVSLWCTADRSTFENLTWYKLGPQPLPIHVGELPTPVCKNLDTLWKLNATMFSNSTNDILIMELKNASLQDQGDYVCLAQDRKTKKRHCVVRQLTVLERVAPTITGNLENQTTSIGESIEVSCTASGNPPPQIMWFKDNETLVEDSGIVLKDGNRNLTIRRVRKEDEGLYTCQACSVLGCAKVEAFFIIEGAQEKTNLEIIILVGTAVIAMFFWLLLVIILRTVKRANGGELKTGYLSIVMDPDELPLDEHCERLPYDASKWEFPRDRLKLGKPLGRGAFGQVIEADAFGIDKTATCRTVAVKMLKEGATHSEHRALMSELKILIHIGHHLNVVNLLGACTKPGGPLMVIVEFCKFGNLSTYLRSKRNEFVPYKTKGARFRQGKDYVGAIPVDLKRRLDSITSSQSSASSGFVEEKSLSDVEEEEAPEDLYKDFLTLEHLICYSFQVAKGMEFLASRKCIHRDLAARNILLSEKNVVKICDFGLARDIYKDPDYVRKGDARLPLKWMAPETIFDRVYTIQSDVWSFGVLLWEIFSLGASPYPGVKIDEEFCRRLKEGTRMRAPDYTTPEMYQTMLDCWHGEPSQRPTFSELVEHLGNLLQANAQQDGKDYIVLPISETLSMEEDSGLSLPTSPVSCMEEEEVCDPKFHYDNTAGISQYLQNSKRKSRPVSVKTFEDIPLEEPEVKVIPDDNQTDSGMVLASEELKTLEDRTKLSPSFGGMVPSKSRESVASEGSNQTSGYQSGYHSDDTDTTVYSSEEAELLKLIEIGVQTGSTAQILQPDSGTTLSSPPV

[7] = biological target: T2, Dual specificity mitogen-activated protein kinase kinase 6 (Homo sapiens) (UniProt P52564); experiment: Inhibition of human MKK6 assessed as enzyme activity at 1 uM using p38a (K53A) as substrate preincubated for 20 mins followed by [gamma-33P]-ATP addition and measured after 120 mins by radiometric Hot-SpotSM Kinase assay relative to control
T2 sequence (whole entry): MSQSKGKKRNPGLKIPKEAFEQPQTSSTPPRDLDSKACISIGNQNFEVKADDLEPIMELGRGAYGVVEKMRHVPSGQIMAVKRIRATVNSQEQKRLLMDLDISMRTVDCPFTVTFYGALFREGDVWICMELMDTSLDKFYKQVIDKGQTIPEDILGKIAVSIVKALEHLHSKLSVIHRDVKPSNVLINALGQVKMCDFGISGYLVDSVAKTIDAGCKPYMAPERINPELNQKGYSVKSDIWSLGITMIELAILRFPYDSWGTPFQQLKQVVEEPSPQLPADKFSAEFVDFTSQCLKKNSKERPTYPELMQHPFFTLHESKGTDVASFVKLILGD

[8] = biological target: Serine/threonine-protein kinase 10 (Homo sapiens) (UniProt O94804); experiment: Inhibition of human LOK/STK10 assessed as enzyme activity at 1 uM using RLGRDKYKTLRQIRQ as substrate preincubated for 20 mins followed by [gamma-33P]-ATP addition and measured after 120 mins by radiometric Hot-SpotSM Kinase assay relative to control
Chain of Serine/threonine-protein kinase 10 (Homo sapiens) (O94804 whole entry, looked up): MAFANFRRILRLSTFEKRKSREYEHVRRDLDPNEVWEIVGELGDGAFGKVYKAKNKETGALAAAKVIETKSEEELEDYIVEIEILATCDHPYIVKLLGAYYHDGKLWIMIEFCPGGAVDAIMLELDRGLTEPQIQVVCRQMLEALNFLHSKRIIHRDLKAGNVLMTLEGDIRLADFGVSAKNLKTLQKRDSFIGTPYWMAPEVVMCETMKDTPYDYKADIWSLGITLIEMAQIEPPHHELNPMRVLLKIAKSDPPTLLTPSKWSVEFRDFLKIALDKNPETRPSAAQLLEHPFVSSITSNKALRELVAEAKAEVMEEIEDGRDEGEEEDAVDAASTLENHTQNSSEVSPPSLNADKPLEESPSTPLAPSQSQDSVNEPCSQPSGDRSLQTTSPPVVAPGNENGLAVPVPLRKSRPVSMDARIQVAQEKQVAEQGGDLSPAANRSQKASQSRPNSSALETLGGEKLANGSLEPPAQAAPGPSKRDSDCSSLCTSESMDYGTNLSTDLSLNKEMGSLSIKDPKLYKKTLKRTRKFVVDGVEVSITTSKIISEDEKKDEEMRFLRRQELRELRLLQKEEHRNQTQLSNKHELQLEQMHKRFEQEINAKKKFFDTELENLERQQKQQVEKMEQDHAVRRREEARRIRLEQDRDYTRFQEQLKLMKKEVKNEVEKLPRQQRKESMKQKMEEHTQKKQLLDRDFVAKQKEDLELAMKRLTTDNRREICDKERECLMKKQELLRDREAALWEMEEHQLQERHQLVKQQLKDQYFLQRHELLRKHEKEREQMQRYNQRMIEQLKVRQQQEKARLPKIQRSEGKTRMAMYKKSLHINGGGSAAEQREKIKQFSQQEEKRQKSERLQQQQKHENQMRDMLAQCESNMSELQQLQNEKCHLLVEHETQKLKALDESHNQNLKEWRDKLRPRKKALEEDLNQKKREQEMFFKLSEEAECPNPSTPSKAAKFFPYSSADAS

[9] = biological target: Cyclin-dependent kinase 14/Cyclin-Y (Homo sapiens) (UniProt O94921+Q8ND76); experiment: Inhibition of human CDK14/cyclin Y assessed as enzyme activity at 1 uM using RB Protein as substrate preincubated for 20 mins followed by [gamma-33P]-ATP addition and measured after 120 mins by radiometric Hot-SpotSM Kinase assay relative to control; format: protein-complex assay

Compound | Activity [1] [%] | Activity [2] [%] | Activity [3] [%] | Activity [4] [%] | Activity [5] [%] | Activity [6] [%] | Activity [7] [%] | Activity [8] [%] | Activity [9] [%]
C[C@H](Nc1ncnc2nc[nH]c12)c1cc2cccc(Cl)c2c(=O)n1-c1ccccc1 | 86.4 | 97.7 | 113 | 101 | 116 | 95.9 | 86.2 | 94.4 | 85.3
CC[C@H](Nc1ncnc2[nH]cnc12)c1nc2cccc(F)c2c(=O)n1-c1ccccc1 | 92.3 | 101 | 114 | 97.3 | 120 | 97.7 | 87.2 | 94.4 | 77.4
CC(C)Oc1ccc(-c2nn([C@@H](C)c3oc4ccc(F)cc4c(=O)c3-c3cccc(F)c3)c3ncnc(N)c23)cc1F [UMBRALISIB] | 84.4 | 106 | 111 | 98.7 | 114 | 101 | 87.8 | 99 | 79.3

— ChEMBL document CHEMBL5715954, “Silencing c-Myc translation as a therapeutic strategy through targeting PI3Kδ and CK1ε in hematological malignancies” (Blood, 2017)
